US20160025717A1, “HYPOSIALYLATION DISORDERS” (THE UNITED STATES OF AMERICA, AS REPRESENTED BY THE …, priority 2013, published 2016)

Tested on: GNE myopathy patients
Assay: Plasma T/ST ratio (T-antigen to monosialylated ST-antigen) by LC-MS/MS in treated GNE myopathy patients
Type: in vivo, human
Method: The quantification of the T/ST ratio was carried out using the O-glycan quantification methods disclosed in Liu et al., Mol Genet Metab 106, 442-454 (2012). Briefly, O-linked glycans from human serum or plasma total glycoproteins were released by sodium hydroxide with sodium borohydrate and desalted by ion-exchange column and then permethylated before the quantity of T-antigen and monosialyl ST-antigen was measured using LC-MS/MS method. Plasma samples from 40 normal controls were used to establish the normal range for the T/ST ratio at <0.056. A cut-off of 0.06 was used to diagnose hyposialylation of O-linked protein glycosylation in human plasma or serum.
O-glycans were released from plasma glycoproteins and prepared for analysis essentially as described by Carlson (J Biol Chem 243: 616-626, 1968; Liu et al. Mol Genet Metab 2012, 106, 442-454 (2012)), with modifications as described. An internal standard (1250 pmol raffinose in 5 μL) was added to 10 μL of plasma and […] for a final volume of 100 μL. Next, 100 μL of freshly prepared 2M […] in 0.1M sodium hydroxide was added to denature the serum proteins and release the O-glycans; the mixture was incubated at 45° C. for 16 hours to ensure complete reaction. The reaction was neutralized by drop wise addition of 1.6 mL of a 0.25M acetic acid-methanol solution, and the O-glycans were extracted in methanol. Finally, the extracted glycans were desalted through ion-exchange AG 50W-X8 resin (Bio-Rad, Hercules, Calif.) following the manufacture's instruction and lyophilized overnight. The dried samples were dissolved in DMSO for permethylation.
Both N-glycans and O-glycans were permethylated as previously described with minor modification (Guillard et al. Clin Chem 57, 593-602 (2011)). Briefly, four NaOH pellets (approximately 375 mg) were crushed in 10 ml anhydrous DMSO, 0.5 μL water, 0.4 ml of this slurry and 0.1 ml CH3I were added to the dried glycans and the mixture was shaken vigorously for one hour. The mixture was extracted five times sequentially with a mixture of 200 μL water and 600 μL chloroform. […]

Structure (SMILES) | T/ST ratio (GNE myopathy patient NH00016, after three months without medication (after sialic acid)) | T/ST ratio (GNE myopathy patient NH00016, had received sialic acid one month before the test) | T/ST ratio (GNE myopathy patient SIA79 self-administering off-label ManNAc, cut-off 0.06)
CC(=O)N[C@@H]1C(O)C[C@](O)(C(=O)O)OC1[C@H](O)[C@H](O)CO (stereo in doubt) [sialic acid, 5-N-acetylneuraminic acid] | 0.7 | 0.05 | –
CC(=O)N[C@H]1[C@@H](O)[C@H](O)[C@@H](CO)O[C@H]1O [ManNAc, N-acetyl-D-mannosamine] | – | – | normal range
